One compound from patent US6617325B1, “Biphenyl derivatives, production thereof and uses as medicines” (Boehringer Ingelheim Pharma KG, priority 1999, dated 2003) can be followed below.

What is called melting point is the temperature, or range, at which the solid turns liquid.

Consider `CCC(CCCN1CCC(NC(=O)c2ccccc2-c2ccc(C(F)(F)F)cc2)CC1)(CC(=O)OC)c1ccccc1` (stereo not shown) [Example 2, Methyl 2-ethyl-2-phenyl-5-{4-[(4′-trifluoromethyl-biphenyl-2-carbonyl)-amino]-piperidin-1-yl}-pentanecarboxylate], for which the melting point was 110 °C.
